Source: patent US8349868B2, “Azaquinolones that inhibit prolyl hydroxylase” (Amgen Inc., priority 2007, dated 2013)
Values belong to the compound of their own block, whether it stands above or below them.

Columns and labels:
Format in all cases: biochemical
[1] = biological target: HIF PHD2 (Homo sapiens, UniProt Q9GZT9); assay: PHD2 inhibition assay, TR-FRET detection with VCB-Eu
Method: Inhibition of HIF PHD2 activity was quantified utilizing the TR-FRET technology. HIF PHD2 catalyzes a hydroxyl modification on the proline residue of the P564-HIF1α peptide substrate (Biotin-[…] (SEQ ID NO: 7)) resulting in recognition and binding of the europylated Von Hippel-Lindau protein (pVHL), elongin B and elongin C heterotrimeric (VCB-Eu) complex.
The PHD2 inhibition assay was executed by addition of freshly dissolved FeCl2 to 178.57 μM (100 μM final concentration) in PHD2 Reaction Buffer containing 30 mM MES, pH 6, 10 mM NaCl, 0.25% Brij-35, 0.01% BSA, and 1% DMSO. 28 μL of the iron solution and 2 μL of inhibitor compounds serially diluted in 100% DMSO (5% DMSO final) were added to black polypropylene 96-well microtiter plates. To that, 10 μL of 10 nM PHD2 (2 nM final) was added to all wells of the plate except for the 8 wells of column 12 (LO control), and allowed to incubate at room temperature on the shaker for one hour. Column 6 was the HI control containing PHD2 enzyme and 5% DMSO vehicle, but no inhibitor compound. To initiate the PHD2 enzymatic reaction, 10 μL of a solution containing 500 nM P564-HIF1α peptide (100 nM final), 10 mM ascorbic acid (2 mM final), and 1.25 μM 2-oxoglutarate (α-ketoglutarate; 0.25 μM final) in PHD2 Reaction Buffer was added to all wells of the plate and allowed to incubate on the shaker at room temperature for one hour.
The reaction was terminated by addition of 25 μL TR-FRET Buffer (50 mM TRIS-HCl, pH 9, 100 mM NaCl, 0.05% BSA, and 0.5% Tween-20) containing 150 mM succinate (product inhibitor; 50 mM final), 75 nM streptavidin-APC (25 nM final), and 7.5 nM VCB-Eu (2.5 nM final). The TR-FRET detection reagents were placed on a shaker for 1 hour to reach binding equilibrium before reading on the Discovery platform (PerkinElmer). Europium is excited at 315 nm and phosphoresces at 615 nm with a large Stoke's shift. APC, in turn, emits at 655 nm upon excitation at 615 nm. The TR-FRET signal is measured as the ratio of the APC 655 nm signal divided by the internal europium reference 615 nm emission signal.
The POC (percentage of control) was determined by comparing the signal from hydroxylated peptide substrate in the enzyme reaction containing inhibitor compound with that from PHD2 enzyme with DMSO vehicle alone (HI control), and no enzyme (LO control). POC was calculated using the formula: % control (POC)=(cpd−average LO)/(average HI−average LO)*100. Data (consisting of POC and inhibitor concentration in μM) was fitted to a 4-parameter equation (y=A+((B−A)/(1+((x/C)^[…]))), where A is the minimum y (POC) value, B is the maximum y (POC), C is the x (cpd concentration) at the point of inflection and D is the slope factor) using a Levenburg-Marquardt non-linear regression algorithm.

[2] = biological target: T1, Collagen Prolyl Hydroxylase I (CPH1) (Homo sapiens, UniProt P13674); assay: Collagen prolyl hydroxylase I activity by radiometric HPLC measurement of 2-oxoglutarate conversion to succinic acid; conditions: Table 5; 50 μM 2-oxoglutarate, 100 μM PPG10, 10 μM FeSO4
T1 construct: made in house; host or cells: Trichoplusia ni insect cells (baculovirus)
T1 sequence (P13674 18-534 isoform P13674-2): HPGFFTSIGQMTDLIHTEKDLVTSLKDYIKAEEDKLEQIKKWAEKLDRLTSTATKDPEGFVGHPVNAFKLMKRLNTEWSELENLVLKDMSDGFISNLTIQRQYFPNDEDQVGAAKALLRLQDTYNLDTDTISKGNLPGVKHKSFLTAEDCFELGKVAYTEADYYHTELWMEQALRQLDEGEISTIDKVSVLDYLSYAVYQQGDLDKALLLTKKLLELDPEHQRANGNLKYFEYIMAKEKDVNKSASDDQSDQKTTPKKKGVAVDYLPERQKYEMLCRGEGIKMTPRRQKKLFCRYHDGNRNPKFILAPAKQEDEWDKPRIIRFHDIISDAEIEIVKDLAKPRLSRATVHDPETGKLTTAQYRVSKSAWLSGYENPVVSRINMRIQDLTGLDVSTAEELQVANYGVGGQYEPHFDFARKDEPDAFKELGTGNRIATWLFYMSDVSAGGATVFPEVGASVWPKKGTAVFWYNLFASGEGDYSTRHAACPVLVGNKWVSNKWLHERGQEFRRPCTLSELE
T1 sequence (P07237 18-508 partner): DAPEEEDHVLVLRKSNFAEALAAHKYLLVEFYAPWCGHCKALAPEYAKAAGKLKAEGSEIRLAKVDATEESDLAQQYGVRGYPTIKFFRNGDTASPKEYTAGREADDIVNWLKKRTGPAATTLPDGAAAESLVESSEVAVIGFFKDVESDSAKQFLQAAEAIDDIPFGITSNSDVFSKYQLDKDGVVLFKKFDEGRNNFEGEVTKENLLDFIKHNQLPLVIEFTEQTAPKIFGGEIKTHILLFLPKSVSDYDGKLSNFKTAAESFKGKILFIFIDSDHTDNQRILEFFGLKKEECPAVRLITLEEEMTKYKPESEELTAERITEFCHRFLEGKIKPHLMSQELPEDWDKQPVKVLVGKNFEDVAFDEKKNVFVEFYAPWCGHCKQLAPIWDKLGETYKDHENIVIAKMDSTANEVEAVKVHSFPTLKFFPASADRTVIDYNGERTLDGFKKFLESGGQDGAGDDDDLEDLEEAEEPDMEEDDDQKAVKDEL
Method: Product inhibition was not evident. Compounds were dissolved and serially diluted in 100% DMSO for potency determination. Assay Buffer consisted of Tris-HCl, pH 7.5, 0.2 mM DTT, and 0.5 mg/ml catalase. PPG10 peptide was dissolved in 0.25% acetic acid and denatured by boiling for 5 minutes then placed on ice for 5 minutes. The denatured PPG10 was then pre-mixed with 1 M ascorbate, prepared in water, and the mixture diluted with Assay Buffer to yield a working solution of 5× peptide and ascorbate. FeSO4 was freshly dissolved in water and diluted to a 2.8× concentration in Assay Buffer. Enzyme stocks were diluted to a 5× concentration in Assay Buffer. Example compounds plus FeSO4 solution were mixed, followed by addition of 5× enzyme solutions. After 10 minutes gentle mixing at room temperature, the 5× peptide solution was added. After another 10 minutes gentle mixing at room temperature, a 5× stock of 2-OG was added to initiate the reaction. Final concentrations in the assay were: 50 mM Tris-HCl, pH 7.5, 0.2 mM DTT, 0.5 mg/mL catalase, 10 μM FeSO4, 100 μM PPG10, 50 μM 5-[^14C]-2-oxoglutarate (23-37 cpm/μmol), 1 mM ascorbate, and 4% DMSO. Reactions were gently mixed at room temperature for 1 hour and terminated by addition of an equal volume of 0.02 NH2SO4.
A portion of each terminated reaction was auto-injected into a Polypore H column (PerkinElmer, Waltham, Mass.) at a rate of 0.3 mL/min with 0.01 N H2SO4 as the mobile phase. […] An Agilent 1100 HPLC System with dual quaternary pumps, column switching valve, and dual columns was used to resolve product from substrate. The Agilent 1100 Multiple Wavelength Detector indicated UV absorption of the substrate and product peaks at 210 nm and a Beta-RAM Model 2 radiation detector with In-Flow 2:1 scintillation cocktail (IN/US Systems Inc.) enabled quantitation of the 2 radioactive peaks. Laura Lite software (IN/US, Tampa, Fla.) was used to collect and analyze radiometric data. AUC measurements were converted to percent turnover of 2-OG. To standardize across studies, 2-OG conversion was normalized to percent of control (POC) values using reactions that lacked enzyme or inhibitor as low and high controls, respectively. POC data was fitted to the 4-parameter logistic model (A+((B−A)/(1+((x/C)^D)))) using ActivityBase (IDBS, Alameda Calif.) where A is the minimum POC value, B is the maximum POC value, D is the slope factor, and C is compound concentration at the inflection point (IC50, micromolar).

[3] = biological target: T2, Collagen Prolyl Hydroxylase II (CPH2) (Homo sapiens, UniProt O15460); assay: Collagen prolyl hydroxylase II activity by radiometric HPLC measurement of 2-oxoglutarate conversion to succinic acid; conditions: Table 5; 50 μM 2-oxoglutarate, 100 μM PPG10, 10 μM FeSO4
T2 construct: made in house; host or cells: Trichoplusia ni insect cells (baculovirus)
T2 sequence (O15460 22-533 isoform O15460-2): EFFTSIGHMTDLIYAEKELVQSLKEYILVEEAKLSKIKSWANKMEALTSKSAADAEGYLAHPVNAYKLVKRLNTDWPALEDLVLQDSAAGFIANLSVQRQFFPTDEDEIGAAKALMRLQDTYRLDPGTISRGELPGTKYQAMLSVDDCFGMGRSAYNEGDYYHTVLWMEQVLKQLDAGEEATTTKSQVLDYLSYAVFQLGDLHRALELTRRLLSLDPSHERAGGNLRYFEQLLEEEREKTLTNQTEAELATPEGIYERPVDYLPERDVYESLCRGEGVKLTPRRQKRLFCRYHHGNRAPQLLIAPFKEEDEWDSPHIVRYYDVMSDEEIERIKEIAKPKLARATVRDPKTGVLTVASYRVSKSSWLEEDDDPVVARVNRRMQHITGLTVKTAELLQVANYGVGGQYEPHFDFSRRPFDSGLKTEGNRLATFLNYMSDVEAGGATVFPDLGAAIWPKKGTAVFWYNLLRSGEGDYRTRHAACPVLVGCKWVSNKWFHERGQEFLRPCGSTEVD
T2 sequence (P07237 18-508 partner): as the sequence (P07237 18-508 partner) above
Method: Assay conditions were established in separate studies to define dependence on dithiothreitol (DTT), ascorbate, and catalase, and to define reaction linearity and Km values for 2-oxoglutarate (2-OG; PerkinElmer LAS, Shelton, Conn. or Moravek Biochemicals, Brea, Calif.), FeSO4, and (Pro-Pro-Gly)10 peptide (PPG10; Peptides International, Louisville, Ky.). […] Product inhibition was not evident. Compounds were dissolved and serially diluted in 100% DMSO for potency determination. Assay Buffer consisted of Tris-HCl, pH 7.5, 0.2 mM DTT, and 0.5 mg/ml catalase. PPG10 peptide was dissolved in 0.25% acetic acid and denatured by boiling for 5 minutes then placed on ice for 5 minutes. The denatured PPG10 was then pre-mixed with 1 M ascorbate, prepared in water, and the mixture diluted with Assay Buffer to yield a working solution of 5× peptide and ascorbate. FeSO4 was freshly dissolved in water and diluted to a 2.8× concentration in Assay Buffer. Enzyme stocks were diluted to a 5× concentration in Assay Buffer. Example compounds plus FeSO4 solution were mixed, followed by addition of 5× enzyme solutions. After 10 minutes gentle mixing at room temperature, the 5× peptide solution was added. After another 10 minutes gentle mixing at room temperature, a 5× stock of 2-OG was added to initiate the reaction. Final concentrations in the assay were: 50 mM Tris-HCl, pH 7.5, 0.2 mM DTT, 0.5 mg/mL catalase, 10 μM FeSO4, 100 μM PPG10, 50 μM 5-[^14C]-2-oxoglutarate ([…]), 1 mM ascorbate, and 4% DMSO. Reactions were gently mixed at room temperature for 1 hour and terminated by addition of an equal volume of 0.02 NH2SO4. Unless otherwise indicated, all reagents were obtained from Sigma and were the highest grade available.
A portion of each terminated reaction was auto-injected into a Polypore H column (PerkinElmer, Waltham, Mass.) at a rate of 0.3 mL/min with 0.01 N H2SO4 as the mobile phase. The HPLC method employed exploits the difference in pKa of the 2-OG and SA carboxylates to chromatographically separate substrate from product at low pH on ion-exchange resin, as described by Cunliffe, et al (Biochem J., 240, 617-619 (1986)) and Kaule and Gunzler (Anal. Biochem., 184, 291-297 (1990)). An Agilent 1100 HPLC System with dual quaternary pumps, column switching valve, and dual columns was used to resolve product from substrate. The Agilent 1100 Multiple Wavelength Detector indicated UV absorption of the substrate and product peaks at 210 nm and a Beta-RAM Model 2 radiation detector with In-Flow 2:1 scintillation cocktail (IN/US Systems Inc.) enabled quantitation of the 2 radioactive peaks. Laura Lite software (IN/US, Tampa, Fla.) was used to collect and analyze radiometric data. AUC measurements were converted to percent turnover of 2-OG. To standardize across studies, 2-OG conversion was normalized to percent of control (POC) values using reactions that lacked enzyme or inhibitor as low and high controls, respectively. POC data was fitted to the 4-parameter logistic model (A+((B−A)/(1+((x/C)^D)))) using ActivityBase (IDBS, Alameda Calif.) where A is the minimum POC value, B is the maximum POC value, D is the slope factor, and C is compound concentration at the inflection point (IC50, micromolar).
The Baculovirus Expression Vector System (BEVS) from Invitrogen was used to express collagen prolyl 4-hydroxylase (CPH) in Trichoplusia ni insect cells. Active collagen prolyl 4-hydroxylase is an oligomeric protein that exists as an α2β2 tetramer. The alpha subunits incorporated into the tetramer can be either collagen prolyl 4-hydroxylase α1 (GenBank reference sequence NM_000917) or collagen prolyl 4-hydroxylase α2 (GenBank reference sequence NM_004199). The beta subunit, collagen prolyl 4-hydroxylase β (GenBank reference sequence NM_000918), is common to both forms of the tetramer. […]

[4] = Table 5, Example and Comparative Compounds
[5] = Table 4, TR-FRET, 2 nM PHD2, 100 nM P564-HIF1α peptide, 0.25 μM 2-oxoglutarate

HIF PHD2, sequence (Q9GZT9 whole entry): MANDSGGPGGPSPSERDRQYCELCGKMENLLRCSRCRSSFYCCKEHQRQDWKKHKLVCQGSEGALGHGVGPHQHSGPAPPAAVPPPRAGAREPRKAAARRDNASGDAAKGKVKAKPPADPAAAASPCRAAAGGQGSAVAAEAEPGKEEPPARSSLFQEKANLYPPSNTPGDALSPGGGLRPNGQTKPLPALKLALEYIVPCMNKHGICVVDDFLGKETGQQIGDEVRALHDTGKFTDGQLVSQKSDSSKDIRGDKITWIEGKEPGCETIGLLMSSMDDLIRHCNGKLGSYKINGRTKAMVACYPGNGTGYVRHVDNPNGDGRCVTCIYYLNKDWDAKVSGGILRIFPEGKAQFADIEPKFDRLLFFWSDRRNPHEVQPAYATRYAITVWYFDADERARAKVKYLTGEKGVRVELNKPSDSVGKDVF

- IC50 [1, 5]: 566 nM
Structure (SMILES): Cn1c(=O)c(C(=O)CCC(=O)O)c(O)c2ccccc21 [Example 5, 4-(4-hydroxy-1-methyl-2-oxo-1,2-dihydroquinolin-3-yl)-4-oxobutanoic acid]

- IC50 [1, 5]: 135 nM
Structure (SMILES): O=C(O)CCC(=O)c1c(O)c2ccc(F)c(F)c2n(Cc2ccccc2)c1=O [Example 6, 4-(1-benzyl-7,8-difluoro-4-hydroxy-2-oxo-1,2-dihydroquinolin-3-yl)-4-oxobutanoic acid]

- IC50 [1, 5]: 309 nM
- IC50 [3]: 3820 nM
Structure (SMILES): Cn1c(=O)c(C(=O)CCC(=O)O)c(O)c2cc(Br)ccc21 [Example 7, 4-(6-bromo-4-hydroxy-1-methyl-2-oxo-1,2-dihydroquinolin-3-yl)-4-oxobutanoic acid]

- IC50 [1, 5]: 343 nM
- IC50 [3]: 5280 nM
Structure (SMILES): Cn1c(=O)c(C(=O)CCC(=O)O)c(O)c2c(Br)cccc21 [Example 8, 4-(5-bromo-4-hydroxy-1-methyl-2-oxo-1,2-dihydroquinolin-3-yl)-4-oxobutanoic acid]

- IC50 [1, 5]: 779 nM
Structure (SMILES): Cn1c(=O)c(C(=O)CCC(=O)O)c(O)c2c(F)ccc(F)c21 [Example 9, 4-(5,8-difluoro-4-hydroxy-1-methyl-2-oxo-1,2-dihydroquinolin-3-yl)-4-oxobutanoic acid]

- IC50 [1, 5]: 285 nM
Structure (SMILES): Cn1c(=O)c(C(=O)CCC(=O)O)c(O)c2ccc(F)c(F)c21 [Example 10, 4-(7,8-difluoro-4-hydroxy-1-methyl-2-oxo-1,2-dihydroquinolin-3-yl)-4-oxobutanoic acid]

- IC50 [1, 5]: 11.4 nM
Structure (SMILES): Cn1c(=O)c(C(=O)CCC(=O)O)c(O)c2ccc(-c3ccc(C(=O)O)cc3)cc21 [Example 11, 4-(3-(3-carboxypropanoyl)-4-hydroxy-1-methyl-2-oxo-1,2-dihydroquinolin-7-yl)benzoic acid]

Second part, the compound before the results:

Structure (SMILES): Cn1c(=O)c(C(=O)NCC(=O)O)c(O)c2c(Br)cccc21 [Comparative Compound 1, reference compound]
- IC50 [1, 4]: 188 nM
- IC50 [2]: 341 nM
- IC50 [3]: 58 nM

Structure (SMILES): Cn1c(=O)c(C(=O)NCC(=O)O)c(O)c2cc(Br)ccc21 [Comparative Compound 2, reference compound]
- IC50 [1, 4]: 351 nM
- IC50 [2]: 404 nM
- IC50 [3]: 115 nM

Structure (SMILES): Cn1c(=O)c(C(=O)NCC(=O)O)c(O)c2ccc(Br)cc21 [Comparative Example 3, reference compound]
- IC50 [1, 4]: 46 nM
- IC50 [2]: 351 nM
- IC50 [3]: 111 nM

Structure (SMILES): Cn1c(=O)c(C(=O)NCC(=O)O)c(O)c2cccc(Br)c21 [Comparative Example 4, reference compound]
- IC50 [1, 4]: 104 nM
- IC50 [2]: 503 nM
- IC50 [3]: 261 nM

Structure (SMILES): Cn1c(=O)c(C(=O)CCC(=O)O)c(O)c2cc(I)cnc21 [Example 1, 4-(4-hydroxy-6-iodo-1-methyl-2-oxo-1,2-dihydro-1,8-naphthyridin-3-yl)-4-oxobutanoic acid]
- IC50 [1, 5]: 208 nM

Structure (SMILES): Cn1c(=O)c(C(=O)CCC(=O)O)c(O)c2cccc(Br)c21 [Example 2, 4-(8-bromo-4-hydroxy-1-methyl-2-oxo-1,2-dihydroquinolin-3-yl)-4-oxobutanoic acid]
- IC50 [1, 5]: 775 nM
- IC50 [2]: 22700 nM
- IC50 [3]: 1870 nM

Structure (SMILES): Cn1c(=O)c(C(=O)CCC(=O)O)c(O)c2ccc(C(F)(F)F)nc21 [Example 3, 4-(4-hydroxy-1-methyl-2-oxo-7-(trifluoromethyl)-1,2-dihydro-1,8-naphthyridin-3-yl)-4-oxobutanoic acid]
- IC50 [1, 5]: 64.5 nM

Structure (SMILES): Cn1c(=O)c(C(=O)CCC(=O)O)c(O)c2ccc(Br)cc21 [Example 4, 4-(7-bromo-4-hydroxy-1-methyl-2-oxo-1,2-dihydroquinolin-3-yl)-4-oxobutanoic acid]
- IC50 [1, 5]: 64.9 nM
- IC50 [1, 4]: 64.9 nM
- IC50 [3]: 13400 nM
